Where “and” joins values, the source holds several entries; their conditions need not be identical. Equal entries are not always repeated.
How the values were obtained:
[1] = system: P. aeruginosa cells; assay: microbe, parasite or virus in culture; format: cell-based, Pseudomonas aeruginosa; details: 13 h
Description: These experiments were carried out in 96 well plates, as described above. […] The 500-fold diluted solution was centrifuged and the cell-free supernatant was analyzed for pyoverdin by fluorescence spectrophotometry in a Synergy H1 microplate reader (BioTek) with excitation at 400 nm and emission at λmax=455 nm. Full emission spectra (430-550 nm) were also recorded using a Perkin Elmer LS50B spectrophotometer.
As indicated above, genetic manipulations were used in prior work to delete the bfd gene (Δbfd) and evaluate the consequences of inhibiting the BfrB-Bfd interaction in P. aeruginosa.^18 Preventing the BfrB-Bfd interaction in the Δbfd mutant cells dysregulates iron homeostasis by causing the irreversible accumulation of iron in BfrB and the concomitant depletion of free iron levels in the cytosol. […] To analyze the levels of secreted pyoverdin, cells were pelleted and the supernatant was diluted 500-fold prior to measuring the fluorescence intensity at 455 nm (FIG. 7B).

[2] = system: ΔbfrB P. aeruginosa cells; assay: Growth response of bfrB deletion mutant cells to analog; format: cell-based, Pseudomonas aeruginosa; details: M63 + 4 μM Fe; 15 h post-inoculation; viable cells vs untreated control
Description: To this end, wild type and ΔbfrB cells were cultured in M63 media supplemented with 4 μM Fe, in the presence of different concentrations of analog. […] Since BfrB is not essential, it is likely that the cell can compensate for the absence of the iron storage protein. […] The sudden onset of toxicity observed in the second phase, which is not observed with the wild type cells, is probably related to off-target effects that expose a fitness vulnerability caused by the absence of BfrB. Consequently, it is possible to conclude that the dose-dependent growth defect elicited by 11 or 16 on wild type P. aeruginosa cells is largely a consequence of the interaction between the small molecule inhibitors and BfrB in the bacterial cell. This issue was investigated in additional detail (see below) by probing the phenotypic and biochemical response of wild type cells treated with the small molecule inhibitors.

[3] = system: A. baumannii; assay: Growth curves and IC50 determination in A. baumannii; format: cell-based, Acinetobacter baumannii (AB5075); details: Acinetobacter baumannii; AB5075; modified M63 media; 48 well-plates
Description: (§1) Pre-cultures (5 mL LB media) were grown for 12 h at 37° C. and 220 rpm in 50 mL conical tubes (VWR International, PA) covered with an air permeable membrane. The cells were then centrifuged at 4,000 rpm for 10 min, the resultant cell pellets washed twice in M63 media and then diluted in M63 media to OD600=0.01. Stock solutions (100 mM) of analog in DMSO were prepared weekly and stored at 4° C. Prior to initiating experiments in 96 well plates, the analog stock solution was serially diluted to make 10 mM or 1 mM working solutions in DMSO. A small volume of the appropriate working solution was transferred to a glass vial, diluted with DMSO to 30 μL, and then diluted to a final volume of 1.5 mL with pre-culture cell suspension with an OD600=0.01. The resultant cell suspension (200 μL) was transferred to a clear-bottom polystyrene 96 well plate (VWR), and incubated at 35° C. and 205 cpm for 13 h in an Epoch 2 microplate spectrophotometer (Biotek Instruments, Inc., Vermont). The growth curve in the presence of Ciprofloxacin was obtained in the same plate. […] MIC determinations were carried out using standard broth microdilution methods in 48 well plates and modified M63 media. Cells were incubated at 35° C.
This idea was tested with A. baumanni AB5075, a highly virulent isolate, which has been proposed as a model strain for the evaluation of pathogenesis and antimicrobial treatments.^66.

[4] = system: P. aeruginosa; assay: Growth curves and IC50 determination in P. aeruginosa; format: cell-based, Pseudomonas aeruginosa (PAO1); details: Pseudomonas aeruginosa; M63 media; growth % from OD600 at 13 h; three independent experiments
Description: as §1

`O=C1NC(=O)c2c(NCCCc3cccc(O)c3)cccc21` [Analog 16, 4-((3-(3-Hydroxyphenyl)propyl)amino)isoindoline-1,3-dione] was tested, and the viability at 125 µM ([1]; Pseudomonas aeruginosa, read-out: viable cells relative to untreated control) was about 30%, the “pyoverdin secreted, fluorescence normalized to viable cells (CFU/mL), relative to untreated control” value ([1]; analog 125 μM, emission 455 nm) was ~4.5 fold and ~4 fold and the “growth response of ΔbfrB mutant cells” value [2] was “biphasic growth response”. For the same compound, the IC50 [3] was 128 µM and the IC50 [4] was 121 µM.
